Laboratory results published in ChEMBL document CHEMBL1131736, “Lipase-catalyzed protection of the hydroxy groups of the nucleosides inosine and 2'-deoxyinosine: a new chemoenzymatic synthesis of the antiviral drug 2',3'-dideoxyinosine” (Bioorg Med Chem Lett, 1999).
Calls of active or inactive are those of the source. No cut-off for these calls is given here.

Tested on: Human immunodeficiency virus 1
Test: Compound was tested for antiretroviral activity against HIV; compound found active.
Assay type: functional, organism-based

How did the Activity turn out when `O=c1[nH]cnc2c1ncn2[C@H]1CC[C@@H](CO)O1` was run?
Its Activity is “Active”.
